Measured values published in US20140328940A1, “MODULATION OF AXON DEGENERATION” (Genentech, Inc., priority 2009, published 2014).
“Also recorded” adds a separate entry of the source.

Key:
[1] = system: DRG neurons (axon vs. cell body compartment); test: Campenot chamber local axon degeneration (anti-NGF in axon compartment); format: cell-based, mouse
Protocol: Teflon dividers (Tyler Research) were cleaned by washing in water and wiping them clean of any residual grease. Dividers were then soaked in Nochromix (Godax Laboratories)/sulfuric acid overnight, rinsed five times in distilled and autoclaved water (SQ water), boiled for 30 minutes, and then air-dried before use
Mouse laminin (5 μg/ml in sterile filtered water; Invitrogen) was added to PDL coated 35 mm dishes (BD Biosciences) and they were incubated for 1 hour at 37° C., followed by two rinses in SQ water. The dishes were vacuum-dried and then air-dried in a laminar flow hood for 15 minutes. Prepared dishes were then scored with a pin rake (Tyler Research). […] High vacuum grease (VWR) was added to each Teflon divider under a dissection scope. The laminin coated PDL dishes were inverted and dropped onto the Teflon divider, with additional pressure added by use of a toothpick in the non-track-containing regions. Dishes were incubated for 1 hour at 37° C. Five hundred microliters of NBM+MC (50 ng/ml NGF) solution was added to each of the side compartments, and a grease barrier was added in front of the center cell slot.
Free E13.5 spinal cords were dissected from mouse embryos and placed into NBM+MC (25 ng/ml NGF) solution. DRGs were detached from the spinal cord with a tungsten needle. An NBM+MC-lubricated P200 pipette was used to move DRGs into a 1.5 ml tube. DRGs were pelleted with a tabletop centrifuge for 30 seconds. The supernate was discarded and 0.05% Trypsin/EDTA (cold) was added. The pellet was resolubilized with a pipette and incubated at 37° C. for 15 minutes with constant agitation (650 RPM). The sample was again centrifuged and the supernate discarded. The pellet was resuspended in warm NBM+MC (50 ng/ml NGF) solution and triturated with a flamed glass pipette 20 times, followed by trituration with a fire-bored glass pipette another 20 times. The samples were again centrifuged and the resulting pellets were resuspended in 0.5 ml NBM+MC (50 ng/ml NGF) solution. The cells were diluted to a final concentration of 2.5×10^6 cells/ml. The cell suspensions were loaded into a 1 ml syringe with a 22 gauge needle. The center slot of the Campenot divider was filled using the syringe (to a volume of at least 50 μl). The Campenot chamber was incubated overnight at 37° C. 2.5 ml NGF+MC (50 ng/ml NGF) solution was added to the center compartment and the grease gate was removed. The outer medium (cell body compartment) was replaced after three days with 2.5 ml NBM+MC medium (with 25 ng/ml NGF). After five days in culture, one distal compartment was washed three times with warmed NBM+MC (no NGF) solution. After the third wash, 500 μl NBM+MC (no NGF) solution was added to the axon compartment in combination with either 0.5% DMSO or an inhibitor. The cell body compartment was replaced with 2.5 ml NBM+MC medium (with 25 ng/ml NGF) containing either 0.5% DMSO or inhibitor.
After 28 hours of anti-NGF antibody treatment, 8% PFA/30% sucrose solution (see above) was added directly to the culture medium at a 1:1 dilution and incubated for 30 minutes. The Teflon divider was removed after the first 15 minutes of addition. The system was washed once with 2.5 ml PBS prior to immunostaining. Neurons were blocked in 5% BSA/0.2% triton in PBS for 30 minutes. The primary antibody Tuj1 (Covance) was added to a final dilution of 1:1000 in PBS containing 2% BSA and incubated overnight at 4° C. The dish was washed once with PBS. […] The dish was washed twice with PBS, and a 22×22 mm coverslip (VWR) was added with 350 μl of fluoromount G (Electron Microscopy Sciences). The neurons were visualized by use of a fluorescence microscope.
As described above, E13.5 DRGs were isolated and grown for 5 days in a Campenot chamber.

[2] = target: ErbB kinase; conditions: read-out: Cellular IC50; heregulin induced tyrosine phosphorylation, MDA-MB-453 cells; published source; cited from earlier work
[3] = system: cerebellar granule neurons (CGNs); test: serum deprivation/KCl reduction degeneration of cerebellar granule neurons; format: cell-based, mouse; conditions: 5 mM KCl, 24 hours
[4] = target: ErbB kinase (Homo sapiens, UniProt P04626); conditions: protein tyrosine phosphorylation, 3T3-Her2 cells; published source; read-out: Cellular IC50; cited from earlier work
ErbB kinase (Homo sapiens, UniProt P04626), sequence (P04626 23-1255): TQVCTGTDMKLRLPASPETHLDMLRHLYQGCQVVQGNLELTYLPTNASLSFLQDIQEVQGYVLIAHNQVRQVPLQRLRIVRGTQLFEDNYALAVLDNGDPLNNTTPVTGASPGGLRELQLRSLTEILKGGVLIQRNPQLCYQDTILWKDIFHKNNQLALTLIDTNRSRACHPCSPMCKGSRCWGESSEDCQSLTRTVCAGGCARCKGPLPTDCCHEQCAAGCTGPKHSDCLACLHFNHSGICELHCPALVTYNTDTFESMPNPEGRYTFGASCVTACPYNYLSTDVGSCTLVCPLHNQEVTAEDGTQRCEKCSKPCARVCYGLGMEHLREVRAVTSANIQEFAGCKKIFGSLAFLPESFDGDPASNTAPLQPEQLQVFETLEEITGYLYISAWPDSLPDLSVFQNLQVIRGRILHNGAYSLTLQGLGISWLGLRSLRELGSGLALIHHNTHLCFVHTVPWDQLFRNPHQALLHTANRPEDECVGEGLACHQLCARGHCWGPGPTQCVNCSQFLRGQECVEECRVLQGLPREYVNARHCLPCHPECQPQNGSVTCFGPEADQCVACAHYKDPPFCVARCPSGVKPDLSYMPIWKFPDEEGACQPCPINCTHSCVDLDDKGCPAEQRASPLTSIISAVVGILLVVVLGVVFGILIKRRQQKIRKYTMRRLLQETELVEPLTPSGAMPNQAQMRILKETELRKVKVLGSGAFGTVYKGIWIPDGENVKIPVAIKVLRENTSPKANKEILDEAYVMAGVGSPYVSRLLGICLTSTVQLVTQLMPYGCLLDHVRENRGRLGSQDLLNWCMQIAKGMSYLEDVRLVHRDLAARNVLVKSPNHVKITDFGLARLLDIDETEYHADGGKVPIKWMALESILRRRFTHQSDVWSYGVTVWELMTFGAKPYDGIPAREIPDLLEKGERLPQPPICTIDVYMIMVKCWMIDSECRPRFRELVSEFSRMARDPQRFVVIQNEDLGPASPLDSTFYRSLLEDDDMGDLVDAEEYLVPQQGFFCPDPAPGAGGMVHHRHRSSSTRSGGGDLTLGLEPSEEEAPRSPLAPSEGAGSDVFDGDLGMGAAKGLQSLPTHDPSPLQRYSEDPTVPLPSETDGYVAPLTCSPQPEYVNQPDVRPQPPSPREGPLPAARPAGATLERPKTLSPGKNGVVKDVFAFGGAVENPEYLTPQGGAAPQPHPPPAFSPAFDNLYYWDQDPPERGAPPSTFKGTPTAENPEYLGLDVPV

[5] = system: DRGs; test: G-protein/GPCR inhibitors in NGF withdrawal-induced degeneration in DRGs; format: cell-based, mouse
Protocol: The assays described herein identified several inhibitors of G-proteins and G-protein coupled receptors (GPCRs) that decrease degeneration in neurons. Experiments were performed in DRGs to verify the role of G-proteins and GPCRs in degeneration pathways. The experimental protocols used in these experiments are the same as those described in Example 14. Pertussis toxin and SCH 202676 were purchased from Tocris Bioscience.

[6] = system: dorsal spinal cord explants; test: dorsal spinal cord (DSC) explant degeneration; format: cell-based; conditions: 3.4 μM, 11.1 μM, 33.3 μM, and 100 μM
Description: DSCs grow out axons over a period of days, but if they are not rescued with the addition of a survival factor, they will eventually degenerate.

[7] = peripheral neuropathy in patients treated with paclitaxel (adverse event analysis); format: in vivo, human; conditions: combination with paclitaxel; first 400 patients enrolled; placebo+paclitaxel 26.4%; p=0.012 Fisher's exact
Description: Tarceva® (erlotinib) is an EGFR kinase inhibitor. Treatment of patients with paclitaxel and other chemotherapeutic agents is known to lead to peripheral neuropathy (reviewed in Wilkes, Semin. Oncol. Nurs. 23(3):162-173, 2007).

[8] = toxin-induced degeneration of sympathetic neurons (MTT assay); format: cell-based; conditions: Sprague-Dawley, rat, primary sympathetic neurons from cervical ganglia, 24 hour camptothecin, read-out: % viability (normalized)
Protocol: Sympathetic cervical ganglia were dissected from postnatal day 1 Sprague-Dawley rats (Charles River Labs) and collected in a dish containing Ultraculture media (Lonza) with 5% fetal bovine serum (Invitrogen). Ganglia were washed twice with serum-free Ultraculture media, and a final concentration of 0.1% trypsin (Worthington) was added and incubated with the tissue at 37° C. for 30 minutes. One percent DNase (Roche) solution in PBS was added to the ganglia and incubated at room temperature for 1-2 minutes. Ganglia were washed with Ultraculture and allowed to settle to the bottom of the tube. All wash media were removed and 1 mL plating media containing Ultraculture, 5% rat serum, 1% penicillin-streptomycin, 1% glutamax, 7 μM cytosine arabinoside (Sigma), and 50 ng/mL nerve growth factor (2.5S, Cedarlane Laboratory) was added to the tube. Ganglia were dissociated by trituration using a pipet (Rainin). The cell slurry was filtered over a […] cell strainer (Falcon) and cell number was counted. Sympathetic neurons were plated at a density of 5000-7500 cells/well (96-well dish), 200,000 cells/well (6-well plate), or 100,000 cells/well (8-well chamber slide) and grown for 4-5 days in 5% CO2 at 37° C. Every other day neurons were fed with fresh plating media containing 5-10 ng/mL NGF.
NGF withdrawal assays were performed as described in Example 14A. […]

[9] = system: dorsal root ganglion neurons; test: EGF addition to DRG neurons maintained in NGF: degeneration; format: cell-based, mouse; conditions: 100 μg/mL EGF
Protocol: Experiments were carried out to assess the effects of activation of EGFR by ligands, including EGF.
(§1) Dorsal Root Ganglia (DRG) immunoblots were prepared as follows. Primary cells used in the experiments were Charles River CD-1 E13 Dorsal Root Ganglia (DRG). The cells were maintained in N3/F12 (+25 ng/ml NGF) medium (Ham's F12 (23 ml), N3 supplement (1 ml), glucose (1 ml of 1 M glucose stock), 25 ng/ml Nerve Growth Factor 2.5 S, mouse (Roche 11362348001) in Ham's F12 (stock: 50 μg/ml-80° C.), which was filter-sterilized prior to use). The experiments also employed Triton lysis buffer (20 mM Tris pH 7.5, 150 mM NaCl, 0.1% Triton-X100, 100× Phosphatase inhibitor cocktail I (added fresh), 100× Phosphatase inhibitor cocktail II (added fresh), 1 tablet/10 ml Protease inhibitor tablet (added fresh)).
DRG explants were prepared on Day 0. Embryo dissections were carried out in L15 medium (dissection tools were soaked in 70% isopropanol, and dishes were set up on ice: 10 cm dishes (4 embryos per dish) and one 6 cm dish for spinal cords). E13.5 spinal cords were extracted into DMEM+10% FBS. […]
(§2) The goal of these experiments was to see if activation of EGFR by EGF would be sufficient to drive degeneration. […] To ensure that EGF is capable of activating EGFR/ErbBs in the neuronal cultures used in these assays, ERK activation was assessed (ERK is a downstream target of EGFR).

[10] = system: ERK; test: ERK activation by EGF in DRG cultures (Western blot); format: cell-based, mouse; conditions: 100 μg/mL EGF; 30 minutes to 1 hour
Protocol: as §1
DRG explants were prepared on Day 0. […]
Immunoblotting was carried out by aspiration of media with a pipette tip, washing twice with ice-cold sterile PBS, and removal of all PBS using an aspirator with a pipette tip or kimwipes. […] Quantification was carried out by choosing a background method and standard bands that minimize negative/counter-intuitive values: i.e., top/bottom, right/left, user-defined (user-defined). […]
as §2

## N#C/C(=C\c1ccc(O)c(O)c1)C(=O)NCCCc1ccccc1 [AG555]
[1]; 30 μM SB415, 15 μM Act D in cell body compartment, 10 μM AG555, 30 μM SB239 in axon compartment
  formation of varicosities in locally NGF-deprived axons: fewer varicosities
[1]; inhibitor 10 μM in axon compartment
  Axon Compartment (protection of NGF-deprived axons): did not degenerate; also recorded: protected from local degeneration; also recorded: Yes (4)
[1]; inhibitor 10 μM in cell body compartment
  Cell Body Compartment (protection of NGF-deprived axons): failed to prevent degeneration; also recorded: No (4)
[2]
  IC50: 5 nM
[3]; 1 μM
  protection of cerebellar granule neurons from serum deprivation/KCl reduction: protect
[3]; 10 μM
  protection of cerebellar granule neurons from serum deprivation/KCl reduction: protect

## C=CC(=O)Nc1ccc2ncnc(Nc3cccc(Br)c3)c2c1 [PD168393]
[4]
  IC50: 100 nM
[1]; inhibitor 5 μM in axon compartment
  Axon Compartment (protection of NGF-deprived axons): Yes (1)
[1]; inhibitor 5 μM in cell body compartment
  Cell Body Compartment (protection of NGF-deprived axons): No (1)

## CN=c1nc(-c2ccccc2)n(-c2ccccc2)s1 [SCH 202676]
[5]; 0.1 μM, 1 μM, 10 μM or 100 μM (FIGS. 49 and 50)
  NGF withdrawal-induced degeneration in DRGs: decreases

## C#Cc1cccc(Nc2ncnc3cc(OCCOC)c(OCCOC)cc23)c1 [Tarceva, N-(3-ethynylphenyl)-6,7-bis(2-methoxyethoxy)quinazolin-4-amine]
[6]
  degeneration in dorsal spinal cord explants: can delay; also recorded: blocks
[7]
  patients with peripheral neuropathy: 16.3 % of patients

## CC[C@@]1(O)C(=O)OCc2c1cc1n(c2=O)Cc2cc3ccccc3nc2-1 [camptothecin]
[8]
  viability at 24 h: 79%

## EGF: ErbB1 ligand added to DRG neurons
[9]
  induction of axon degeneration: does not cause degeneration
[10]
  ERK activity (phosphorylation of ERK, Western blot): increased

## Pertussis toxin
[5]; 0.01 μg/mL, 0.1 μg/mL, or 1 μg/mL (FIG. 51)
  degeneration in neurons following NGF withdrawal: decreases
